One molecule from patent publication US20100227841A1, “Patient populations and treatment methods” (Harbor BioSciencs, Inc., priority 2008, published 2010) can be followed below.

SMILES strings stand for the structures.

The subject of the series is female NOD mice. Kind of series: Spontaneous autoimmune diabetes in non-obese diabetic (NOD) mouse model. It counts as in vivo. The conditions noted are these: for Insulitis Score/Islet (H&E) / β-Cell Score/Islet (Insulin): scale of 0 to 3. The source says: Treatment of spontaneous autoimmune diabetes in non-obese diabetic (NOD) mouse model. The NOD model is used as an animal model for human type 1 diabetes. The NOD mouse strain spontaneously develops autoimmune (type 1) diabetes by a process that has similarities to human type 1 diabetes mellitus, e.g., immune-mediated selective destruction of the pancreatic islet 13-cells that produce insulin (M. A. Atkinson and N. K. Maclaren, New England J. Medicine, 331:1428-1436 1994). There is a higher incidence of diabetes (i.e., hyperglycemia, glucosuria, and hypoinsulinemia) in female vs. male NOD mice (80-90% vs. 10-20%, respectively). Disease incidence in this animal model is first observed at approximately 12 to 15 weeks of age with maximum incidence usually peaking 5 to 6 weeks later.
Methods. An oral formulation containing 17α-ethynylandrost-5-ene-3β,7β,17β-triol in 30% w/v β-cyclodextrin sulfobutyl ether sodium salt (Captisol®; CyDex, Inc., Overland Park, Kans.) was used. Six-week old female NOD mice (approximately 20-25 grams) were purchased from The Jackson Laboratories (Bar Harbor, Me.) and housed in a vivarium under pathogen-free conditions. The animals were acclimated for at least one week prior to initiation of oral dosing with 17α-ethynylandrost-5-ene-3β,7β,17β-triol. Animals were randomized into 5 per cage upon receipt and cages were subsequently randomized into dosing groups.
Female NOD mice were treated once daily with vehicle, 17α-ethynylandrost-5-ene-3β,7β,17β-triol (20 or 80 mg/kg in 100 μL, p.o.), or dexamethasone (0.25 mg/kg, 100 μL, i.p.) from 15 to 25 weeks of age (i.e., before the first incidence of diabetes; at the University of Catania), from 13 to 19 weeks of age (2 days after the first incidence of diabetes), or from 12 to 26 weeks of age (9 days after the first incidence of diabetes). Blood glucose was monitored using glucometers (ENCORE Glucometer, Bayer Corp., Elkhart, Ind.) at weekly intervals, beginning at 10 weeks of age. Mice with blood glucose levels 200 mg/dL on two consecutive occasions were considered diabetic. The percentage of animals with diabetes over the course of the experiment was monitored.
Histological assessment of insulitis and functional 13-cell content was assessed at the time of disease diagnosis or at the end of the 26-week study (i.e., disease-free mice). Pancreata (after CO2 euthanasia) were immediately isolated and placed in 10% buffered formalin at room temperature overnight, and then embedded in paraffin. After de-paraffinizing, pancreas samples were rehydrated and 5 μm sections were prepared and fixed on glass slides. Some sections were stained with hematoxylin and eosin (H&E) while others were stained with anti-insulin antibody as follows; prepared sections were immersed in Tris-Buffered Saline (TBS: 10 mM Tris buffer, pH 7.4, 0.15 M NaCl) containing 1% of bovine serum albumin (BSA) and 5% normal goat serum for 2 h at room temperature followed by incubation with 2 μg/mL rat anti-insulin IgG2a monoclonal antibody (MAB1417; R&D Systems, Minneapolis, Minn.) in TBS/1% BSA overnight at 4° C. in a humidified chamber. After washing with TBS/0.5 Tween-20, sections were covered with biotinylated anti-rat IgG secondary antibody (BD biosciences, 1:1,000) for 1 h at room temperature, followed by washing with TBS/Tween-20 and incubation with streptavidin-horseradish peroxidase for 30 min. Sections were then incubated with chromogen substrate, DAB (BD Biosciences), for 5 min and counterstained with hematoxylin. The degree of insulitis (leukocyte infiltration per islet; H&E) and functional 13-cell content per islet (insulin production) was scored using a scale of 0 to 3 in which 0=none, 1=few, 2=moderate, 3=high content of inflammatory cells or functional β-cells. Pancreata that were scored were obtained from a randomly-selected portion of mice from each cohort and scores were reported as the mean±SEM for each cohort.

With `C#C[C@]1(O)CC[C@H]2[C@@H]3[C@@H](O)C=C4C[C@@H](O)CC[C@]4(C)[C@H]3CC[C@@]21C` [17α-ethynylandrost-5-ene-3β,7β,17β-triol], the “Disease Incidence” value (20 mg/kg p.o. once daily) came to 0.78 ± 0.15 and the “Disease Incidence” value (80 mg/kg p.o. once daily) is on record as 0.17 ± 0.17. The “No. Islets/pancreas (H&E)” value is, setting by setting: (20 mg/kg p.o. once daily) 2.4 ± 0.9; (80 mg/kg p.o. once daily) 8.0 ± 3.1. The “Insulitis Score/Islet (H&E)” value reads like this: (20 mg/kg p.o. once daily) 2.5 ± 0.3; (80 mg/kg p.o. once daily) 0.8 ± 0.4. The “β-Cell Score/Islet (Insulin)” value by setting is: (20 mg/kg p.o. once daily) 1.5 ± 0.4; (80 mg/kg p.o. once daily) 2.6 ± 0.4. Besides, the “effect on disease incidence” value (20 mg/kg, differs from 80 mg/kg, p=0.009 Fischer's Exact test) is “ineffective”. Besides, the “progressive increase in disease incidence” value (80 mg/kg single daily oral doses started 2 days or 9 days after first incidence of diabetes) is listed as “suppressed”. Besides, under “80 mg/kg, p=0.007 Fischer's Exact test”, the “disease incidence relative to vehicle, meta-analysis across all studies” value is “significant decrease”. The “mean±SEM body weights” value turned out to be 24.6 ± 0.8 g (Week 25, 20 mg/kg); 24.7 ± 0.3 g (Week 25, 80 mg/kg); 24.3 ± 0.6 g (week 31, end of study). The “first incidence of diabetes” value (week 19, once daily treatment from 15 to 25 weeks of age (vehicle 25%)) came out at 8%. In addition, for the setting “weeks 23 through 25 (vehicle 66%), p<0.05 Chi-Squared test”, the “maximum disease incidence during treatment” value was 25%.
